Data: patent US7029870B1 (priority 1997, dated 2006)

Columns and labels:
[1] = target: T1, α2/β1/ε GABAA receptors (Homo sapiens, UniProt P18505+P47869+P78334, S102A); details: α2/β1/ε subunits
T1 sequence (P47869 29-451): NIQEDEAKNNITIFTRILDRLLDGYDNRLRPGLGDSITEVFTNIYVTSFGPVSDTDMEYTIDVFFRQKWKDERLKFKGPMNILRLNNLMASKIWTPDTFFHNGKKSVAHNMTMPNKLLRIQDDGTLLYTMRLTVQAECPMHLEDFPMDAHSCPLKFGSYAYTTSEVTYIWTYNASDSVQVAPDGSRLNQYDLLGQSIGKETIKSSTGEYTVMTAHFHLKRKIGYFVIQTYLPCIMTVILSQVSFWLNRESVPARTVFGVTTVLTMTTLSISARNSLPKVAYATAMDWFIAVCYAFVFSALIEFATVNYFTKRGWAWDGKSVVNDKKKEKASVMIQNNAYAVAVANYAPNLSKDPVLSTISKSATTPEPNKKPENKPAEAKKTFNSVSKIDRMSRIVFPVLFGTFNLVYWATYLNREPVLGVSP
T1 sequence (P18505 26-474): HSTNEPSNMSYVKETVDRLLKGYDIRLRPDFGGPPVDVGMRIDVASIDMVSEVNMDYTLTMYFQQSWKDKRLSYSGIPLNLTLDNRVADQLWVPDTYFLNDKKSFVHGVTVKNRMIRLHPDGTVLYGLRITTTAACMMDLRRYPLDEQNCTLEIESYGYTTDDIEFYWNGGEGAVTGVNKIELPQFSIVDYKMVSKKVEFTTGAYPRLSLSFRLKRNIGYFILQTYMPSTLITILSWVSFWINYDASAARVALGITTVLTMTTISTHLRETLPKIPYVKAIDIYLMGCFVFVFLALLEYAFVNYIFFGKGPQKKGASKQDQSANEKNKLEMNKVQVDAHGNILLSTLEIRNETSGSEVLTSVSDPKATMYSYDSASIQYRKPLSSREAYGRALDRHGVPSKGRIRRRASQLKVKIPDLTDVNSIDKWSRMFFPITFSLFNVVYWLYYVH
T1 sequence (P78334 23-506 S102A): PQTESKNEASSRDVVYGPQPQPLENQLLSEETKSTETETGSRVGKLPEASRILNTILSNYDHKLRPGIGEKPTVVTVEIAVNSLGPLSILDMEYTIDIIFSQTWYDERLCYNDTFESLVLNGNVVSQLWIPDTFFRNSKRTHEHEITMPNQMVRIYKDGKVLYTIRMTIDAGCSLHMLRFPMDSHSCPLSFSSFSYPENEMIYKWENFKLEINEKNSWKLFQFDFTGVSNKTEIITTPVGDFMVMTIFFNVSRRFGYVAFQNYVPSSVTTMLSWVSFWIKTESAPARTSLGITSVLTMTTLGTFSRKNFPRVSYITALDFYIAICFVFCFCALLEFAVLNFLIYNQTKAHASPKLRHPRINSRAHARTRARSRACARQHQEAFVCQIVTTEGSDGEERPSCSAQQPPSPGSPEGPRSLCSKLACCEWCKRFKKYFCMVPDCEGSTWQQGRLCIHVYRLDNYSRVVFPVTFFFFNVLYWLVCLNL

[2] = target: T1, α2/β1/ε GABAA receptors; format: cell-based; design: The ε-subunit open reading frame was amplified from a hippocampal cDNA library; expressed in transfected cells; host or cells: HEK-293 (transient, calcium phosphate); details: for Block of GABA-evoked currents: inhibitor 10 μM, bath applied
[3] = system: α/β/ε GABAA receptors; experiment: Benzodiazepine radioligand binding to membranes of cells transfected with α-, β- and ε-subunits; design: species or system human, rat; details: radioligand 1–50 nM
[4] = target: T2, α1/β3/ε GABAA receptors (UniProt P28472+P62813+P78334, S102A); design: species or system rat α1, human β3, human ε; details: α1/β3/ε subunits; read-out: Maximal stimulation of [3H]muscimol binding to cell membranes
T2 construct: The ε-subunit open reading frame was amplified from a hippocampal cDNA library; expressed in transfected cells; host or cells: HEK-293 (transient, calcium phosphate); membranes prepared from the transfected cells

[5] = system: α/β/ε GABAA receptors (α2/β1/ε or α1/β3/ε)

With 5α-pregnan-3α-ol-20-one [pregnanolone] the “Effect on [35S]TBPS binding” value [1] was “no stimulatory phase”, the “Effect on submaximal GABA-activated currents” value ([2]; concentrations up to 100 nM, α2/β1/ε) was “No significant effects” and the “Potentiation of submaximal GABA-activated currents” value ([2]; high concentrations of the steroid, α2/β1/ε) was “up to 73%”.
In the case of `NCCCC(=O)O` [GABA, γ-aminobutyric acid], the “Reversal potential of GABA-evoked currents” value ([2]; 100 μM GABA, α2/β1/ε, linear fit) is reported as 5.7 mV and the “Hill slope of GABA concentration-response” value ([2]; α2/β1/ε cDNAs) is reported as 1.1.
For `CCOC(=O)c1ncn2c1CN(C)C(=O)c1cc(F)ccc1-2` [[^3H]flumazenil, flumazenil], the “Binding to transfected cell membranes” value [3] was “did not bind”.
For `CN1C(=O)CN=C(c2ccccc2F)c2cc([N+](=O)[O-])ccc21` [[^3H]flunitrazepam, flunitrazepam], the “Binding to transfected cell membranes” value [3] was “did not bind”.
In the case of `CN1CCc2cc3c(cc2[C@H]1[C@@H]1OC(=O)c2c1ccc1c2OCO1)OCO3` [bicuculline], the “Block of GABA-evoked currents” value ([2]; α2/β1/ε) is reported as 73.6±9.3%.
For `CCCC(C)C1(CC)C(=O)NC(=O)NC1=O` (stereo not drawn) [pentobarbital], the Emax [4] was < 15% and the “Enhancement of GABA-evoked currents” value [5] was “blocked the ability”.
In the case of `CC(C)c1cccc(C(C)C)c1O` [propofol, 2,6-diisopropylphenol], the “Enhancement of GABA-evoked currents” value [5] is reported as “blocked the ability”.
picrotoxin was tested, and the “Block of GABA-evoked currents” value ([2]; α2/β1/ε) was 82.5±7.4%.
